Patent US9199943B2, “2-(poly-substituted aryl)-6-amino-5-halo-4-pyrimidinecarboxylic acids and their use as herbicides” (Dow AgroSciences, LLC., priority 2006, dated 2015)

Legend:
[1] = system: CHEAL = lambsquarter (Chenopodium album); assay: General postemergence herbicidal activity, lambsquarter; format: in vivo; conditions: post-emergent, 140 g ai/ha, visual score after 14 days (0 no injury, 100 complete kill); for pest or weed control at 140 g/ha: Chenopodium album, post-emergence, 336 h
Experimental: (§1) Seeds or nutlets of the desired test plant species were planted in Sun Gro MetroMix® 306 planting mixture, which typically has a pH of 6.0 to 6.8 and an organic matter content of about 30 percent, in plastic pots with a surface area of 64 square centimeters. When required to ensure good germination and healthy plants, a fungicide treatment and/or other chemical or physical treatment was applied. The plants were grown for 7-21 days in a greenhouse with an approximate 15 hour photoperiod which was maintained at about 23-29° C. during the day and 22-28° C. during the night. Nutrients and water were added on a regular basis and supplemental lighting was provided with overhead metal halide 1000-Watt lamps as necessary. The plants were employed for testing when they reached the first or second true leaf stage.
(§2) A weighed amount, determined by the highest rate to be tested, of each test compound was placed in a 25 mL glass vial and was dissolved in 4 mL of a 97:3 v/v (volume/volume) mixture of acetone and dimethyl sulfoxide (DMSO) to obtain concentrated stock solutions. […] The concentrated stock solutions obtained were diluted with 20 mL of an aqueous mixture containing acetone, water, isopropyl alcohol, DMSO, Atplus 411F crop oil concentrate, and Triton X-155 surfactant in a 48.5:39:10:1.5:1.0:0.02 v/v ratio to obtain spray solutions containing the highest application rates. Additional application rates were obtained by serial dilution of 12 mL of the high rate solution into a solution containing 2 mL of 97:3 v/v (volume/volume) mixture of acetone and dimethyl sulfoxide (DMSO) and 10 mL of an aqueous mixture containing acetone, water, isopropyl alcohol, DMSO, Atplus 411F crop oil concentrate, and Triton X-155 surfactant in a 48.5:39:10:1.5:1.0:0.02 v/v ratio to obtain ½×, ¼×, ⅛× and 1/16× rates of the high rate. Compound requirements are based upon a 12 mL application volume at a rate of 187 L/ha. Formulated compounds were applied to the plant material with an overhead Mandel track sprayer equipped with a 8002E nozzles calibrated to deliver 187 L/ha over an application area of 0.503 square meters at a spray height of 18 inches (43 cm) above the average plant canopy height. Control plants were sprayed in the same manner with the solvent blank.
(§3) The treated plants and control plants were placed in a greenhouse as described above and watered by sub-irrigation to prevent wash-off of the test compounds. After 14 days, the condition of the test plants as compared with that of the untreated plants was determined visually and scored on a scale of 0 to 100 percent where 0 corresponds to no injury and 100 corresponds to complete kill.
(§4) By applying the well-accepted probit analysis as described by J. Berkson in Journal of the […], 48, 565 (1953) and by D. Finney in “Probit Analysis” Cambridge University Press (1952), the above data can be used to calculate GR50 and GR80 values, which are defined as growth reduction factors that correspond to the effective dose of herbicide required to kill or control 50 percent or 80 percent, respectively, of a target plant.

[2] = system: ABUTH = velvetleaf (Abutilon theophrasti); assay: General postemergence herbicidal activity, velvetleaf; format: in vivo; conditions: post-emergent, 140 g ai/ha, visual score after 14 days (0 no injury, 100 complete kill); for pest or weed control at 140 g/ha: Abutilon theophrasti, post-emergence, 336 h
Experimental: as §1, §2, §3, §4

[3] = system: HELAN = sunflower (Helainthus annuus); assay: General postemergence herbicidal activity, sunflower; format: in vivo; conditions: post-emergent, 140 g ai/ha, visual score after 14 days (0 no injury, 100 complete kill); for pest or weed control at 140 g/ha: post-emergence, 336 h
Experimental: as §1, §2, §3, §4

[4] = system: CHEAL = lambsquarter (Chenopodium album); assay: General preemergence herbicidal activity, lambsquarter; format: in vivo; conditions: pre-emergent, visual score after 20-22 days
Excerpt: (§5) Seeds of the desired test plant species were planted in a soil matrix prepared by mixing a loam soil (43 percent silt, 19 percent clay, and 38 percent sand, with a pH of about 8.1 and an organic matter content of about 1.5 percent) and sand in a 70 to 30 ratio. The soil matrix was contained in plastic pots with a surface area of 113 square centimeters. When required to ensure good germination and healthy plants, a fungicide treatment and/or other chemical or physical treatment was applied. A weighed amount, determined by the highest rate to be tested, of each test compound was placed in a 25 mL glass vial and was dissolved in 6 mL of a 97:3 v/v (volume/volume) mixture of acetone and DMSO to obtain concentrated stock solutions. […] The stock solutions obtained were diluted with 18 mL of a 0.1% v/v aqueous solution of Tween® 20 surfactant to obtain spray solutions containing the highest application rate. Additional application rates were obtained by serial dilution of 12 mL of the high rate solution into a solution containing 3 mL of 97:3 v/v mixture of acetone and DMSO and 9 mL of the 0.1% v/v aqueous solution of Tween® 20 surfactant to obtain 1⁄2×, 1⁄4×, 1⁄8× and 1/16× rates of the high rate. Compound requirements are based upon a 12 mL application volume at a rate of 187 L/ha. Formulated compounds were applied to the plant material with an overhead Mandel track sprayer equipped with a […] nozzles calibrated to deliver 187 L/ha over an application area of 0.503 square meters at a spray height of 18 inches (43 cm) above the soil surface. Control plants were sprayed in the same manner with the solvent blank. The treated pots and control pots were placed in a greenhouse maintained with an approximate 15 hour photoperiod and temperatures of about 23-29° C. during the day and 22-28° C. during the night. Nutrients and water were added on a regular basis and supplemental lighting was provided with overhead metal halide 1000-Watt lamps as necessary. The water was added by top-irrigation. After 20-22 days, the condition of the test plants that germinated and grew as compared with that of the untreated plants that emerged and grew was determined visually and scored on a scale of 0 to 100 percent where 0 corresponds to no injury and 100 corresponds to complete kill or no emergence.

[5] = system: ABUTH = velvetleaf (Abutilon theophrasti); assay: General preemergence herbicidal activity, velvetleaf; format: in vivo; conditions: pre-emergent, visual score after 20-22 days
Excerpt: as §5

[6] = system: HELAN = sunflower (Helianthus annuus); assay: General preemergence herbicidal activity, sunflower; format: in vivo; conditions: pre-emergent, visual score after 20-22 days
Excerpt: as §5

[7] = Chenopodium album, pre-emergence, 480 h, 140 g ai/ha
[8] = Abutilon theophrasti, pre-emergence, 480 h, 140 g ai/ha
[9] = Helianthus annuus, pre-emergence, 480 h, 140 g ai/ha

Row | Compound | pest or weed control at 140 g/ha [1] [%] | pest or weed control at 140 g/ha [2] [%] | pest or weed control at 140 g/ha [3] [%] | melting point [°C] | further results
1 | COc1cc(-c2nc(N)c(Cl)c(C(=O)O)n2)c(F)cc1Cl [Compound 17, 6-Amino-5-chloro-2-(4-chloro-2-fluoro-5-methoxyphenyl)pyrimidine-4-10 carboxylic acid] |  |  |  |  | % Control CHEAL [1]: 100%; % Control ABUTH [2]: 50%; % Control HELAN [3]: 80%; % Control CHEAL ([4]; 140 g ai/ha): 95%; % Control ABUTH ([5]; 140 g ai/ha): 100%; % Control HELAN ([6]; 140 g ai/ha): 0%
2 | Nc1nc(-c2ccc3c(c2F)OCO3)nc(C(=O)O)c1Cl [Compound 22, 6-Amino-5-chloro-2-(4-fluoro-benzo[1,3]-dioxol-5-yl)pyrimidine-4-carboxylic acid] | 95 | 80 | 90 |  | 
3 | CCOc1c(Cl)ccc(-c2nc(N)c(Cl)c(C(=O)O)n2)c1F [Compound 19, 6-Amino-5-chloro-2-(4-chloro-3-ethoxy-2-fluorophenyl)pyrimidine-4-carboxylic acid] | 90 | 95 | 95 | 132 to 134 | pest or weed control at 280 g/ha ([4]; Chenopodium album, pre-emergence, 480 h, 280 g ai/ha): 75%; pest or weed control at 280 g/ha ([5]; Abutilon theophrasti, pre-emergence, 480 h, 280 g ai/ha): 80%; pest or weed control at 280 g/ha ([6]; Helianthus annuus, pre-emergence, 480 h, 280 g ai/ha): 90%
4 | Cc1c(F)sc(-c2nc(N)c(Cl)c(C(=O)O)n2)c1Cl [Compound 16, 6-Amino-5-chloro-2-(4-chloro-2-fluoro-3-methylthiophenyl)pyrimidine-4-carboxylic acid] |  |  |  | 139 to 141 | 
5 | COC(=O)c1nc(-c2ccc(Cl)c(SC(F)(F)F)c2F)nc(N)c1Cl [Compound 14, 6-amino-5-chloro-2-(4-chloro-2-fluoro-3-trifluoro-methylthiophenyl)pyrimidine-4-carboxylic acid methyl ester] | 50 | 80 | 90 | 167 to 169 | 
6 | Nc1nc(-c2ccc(Cl)c(C(F)F)c2F)nc(C(=O)O)c1Cl [Compound 24, 6-Amino-5-chloro-2-(4-chloro-3-difluoromethyl-2-fluorophenyl)pyrimidine-4-carboxylic acid] | 95 | 80 | 90 | 166 to 168 | 
7 | COC(=O)c1nc(-c2cc(OC)c(Cl)cc2F)nc(N)c1Cl [Compound 5, 6-Amino-5-chloro-2-(4-chloro-2-fluoro-5-methoxyphenyl)pyrimidine-4-carboxylic acid methyl ester] | 100 | 95 | 95 |  | 
8 | COC(=O)c1nc(-c2ccc(Cl)c(OC)c2F)nc(N)c1F [Compound 12, 6-amino-2-(4-chloro-2-fluoro-3-methoxy-phenyl)-5-fluoro-pyrimidine-4-carboxylic acid methyl ester] | 95 | 85 | 100 | 200 to 202 | 
9 | CN(C)c1c(Cl)ccc(-c2nc(N)c(Cl)c(C(=O)O)n2)c1F [Compound 23, 6-Amino-5-chloro-2-(4-chloro-3-dimethylamino-2-fluorophenyl)pyrimidine-4-carboxylic acid] | 100 | 95 | 95 | 181 to 183 | 
10 | COc1c(Cl)ccc(-c2nc(N)c(Cl)c(C(=O)O)n2)c1F [Compound 15, 6-amino-5-chloro-2-(4-chloro-2-fluoro-3-methoxyphenyl)-pyrimidine-4-carboxylic acid] | 100 | 100 | 100 | 172 to 173 | pest or weed control at 140 g/ha [4, 7]: 100%; pest or weed control at 140 g/ha [5, 8]: 100%; pest or weed control at 140 g/ha [6, 9]: 100%
11 | Cc1c(Cl)ccc(-c2nc(N)c(Cl)c(C(=O)O)n2)c1F [Compound 20, 6-Amino-5-chloro-2-(4-chloro-2-fluoro-3-methylphenyl)pyrimidine-4-carboxylic acid] | 100 | 90 | 100 | 210 to 212 | 
12 | COc1c(Cl)ccc(-c2nc(N)c(Cl)c(C(=O)O)n2)c1Cl [Compound 18, 6-Amino-5-chloro-2-(2,4-dichloro-3-methoxyphenyl)pyrimidine-4-carboxylic acid] | 100 | 75 | 95 |  | pest or weed control at 140 g/ha [4, 7]: 100%; pest or weed control at 140 g/ha [5, 8]: 100%; pest or weed control at 140 g/ha [6, 9]: 100%
13 | Nc1nc(-c2ccc(Cl)c(OCC(F)F)c2F)nc(C(=O)O)c1Cl [Compound 21, 6-Amino-5-chloro-2-[4-chloro-3-(2,2-difluoroethoxy)-2-fluorophenyl]-pyrimidine-4-carboxylic acid] | 90 | 0 | 80 |  | 
14 | COc1c(Cl)ccc(-c2nc(N)c(Br)c(C(=O)O)n2)c1F [Compound 25, 6-Amino-5-bromo-2-(4-chloro-2-fluoro-3-methoxyphenyl)pyrimidine-4-carboxylic acid] | 100 | 95 | 100 | 173 to 175 | 
